pIC50: −log10 of the molar value. Where a SMILES comes first, the peptide text is derived from it. [ ]: non-standard residue; d: D form. The star is where a group is joined. Nle(5,6-dioxo,6-NHMe) = CNC(=O)C(=O)CC[C@H](N)C(=O)O; Isopropoxycarbonyl = CC(C)OC(=O)*; Hyp = O=C(O)[C@@H]1C[C@@H](O)CN1; Tic = O=C(O)[C@@H]1Cc2ccccc2CN1; X8 = CC1(C)CC(CC(=O)*)C(=O)O1; Aib = CC(C)(N)C(=O)O

This test has as its target T1, recombinant human tissue transglutaminase (rhTG2) (Homo sapiens, UniProt P21980).
T1 construct: purchased Zedira 1022 (so in the source); T022)
T1 sequence (P21980 1-687): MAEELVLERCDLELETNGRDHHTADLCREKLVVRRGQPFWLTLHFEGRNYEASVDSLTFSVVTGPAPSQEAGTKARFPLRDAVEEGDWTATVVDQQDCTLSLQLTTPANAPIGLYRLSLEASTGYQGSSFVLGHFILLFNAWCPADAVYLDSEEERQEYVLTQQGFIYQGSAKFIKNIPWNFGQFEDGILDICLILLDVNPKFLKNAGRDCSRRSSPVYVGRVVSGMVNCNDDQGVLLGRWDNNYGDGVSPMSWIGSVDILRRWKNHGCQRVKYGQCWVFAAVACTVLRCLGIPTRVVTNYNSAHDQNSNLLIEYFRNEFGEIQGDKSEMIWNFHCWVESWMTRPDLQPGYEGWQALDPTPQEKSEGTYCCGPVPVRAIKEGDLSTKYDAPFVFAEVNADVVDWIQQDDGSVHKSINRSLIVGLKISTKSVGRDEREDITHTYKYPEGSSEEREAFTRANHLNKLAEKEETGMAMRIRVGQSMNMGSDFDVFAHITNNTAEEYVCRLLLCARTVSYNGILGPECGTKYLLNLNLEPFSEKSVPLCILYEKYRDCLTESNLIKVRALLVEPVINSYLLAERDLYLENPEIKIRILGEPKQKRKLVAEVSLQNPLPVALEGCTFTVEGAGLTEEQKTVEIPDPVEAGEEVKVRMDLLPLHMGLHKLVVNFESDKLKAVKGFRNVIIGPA
The test can be described thus: Inhibition of rec. human tissue transglutaminase (fluorescence, Abz-APE(CAD-DNP)QEA-OH). The test is classed as biochemical. As to conditions: Table 2, TG2 inhibitors. The protocol:
Method for Inhibition Studies of Rec. Human Tissue Transglutaminase (rhTG2)
250 μg lyophilized His-tagged recombinant human tissue transglutaminase (His6-rhTG2, Zedira product 1022) is reconstituted in H2O (volume depends on original volume before lyophilization) resulting in a buffer containing 10 mM Tris-HCl, 150 mM NaCl, 1 mM EDTA, 5 mM DTT, 189 mg/ml maltodextrin, pH=8.1. The rhTG2 stock solution is diluted in buffer (50 mM Tris-HCl, 7.5 mM CaCl2, 150 mM NaCl, pH=7.4) to give a working solution of 100 U/ml (based on the amine-incorporation activity measured using T036, described below).
A 10 mM inhibitor stock solution is prepared in DMSO, and from this stock solution a serial 1:2-fold dilution series is prepared, also in DMSO. Each of these initial dilutions is subsequently diluted 1:50-fold with buffer (50 mM Tris-HCl, 7.5 mM CaCl2, 150 mM NaCl, pH=7.4) to yield the final working dilutions containing 2% (v/v) DMSO. 15 μl of inhibitor working dilution are added per well of a 96 well microtiter plate. As control, 15 μl of a 2% (v/v) DMSO solution prepared using the buffer mentioned above are added per well.
600 μl of His6-rhTG2 working solution are added to 11.4 ml assay buffer (50 mM Iris-HCl, 7.5 mM CaCl2, 150 mM NaCl, 5 mM DTI, 13.4 mM glycine methylester, 50 μM Abz-APE(CAD-DNP)QEA-OH, (Zedira product A102; patent No.: EP 1781807B1), pH=7.4). From this master-mix solution, 285 μl are added per well containing the inhibitor. Increase in fluorescence is measured using λex=313 nm and λem=418 nm at 37° C. for 20 min. A slope of the increase in fluorescence between 10 and 20 min is calculated for determination of the IC50 value (inhibitor concentration at which 50% of the initial TG2 activity is blocked).
Analysis of enzymatic activity is performed by calculation of the slope of an increase in fluorescence intensity. IC50 values are calculated by plotting the enzymatic activity (as percentage from control containing 2% DMSO instead of inhibitor) against the inhibitor concentration. IC50 is defined as the inhibitor concentration blocking 50%) of initial enzyme activity.
Take `CCC(CC)CNC(=O)Cn1cccc(NC(=O)[C@H](CCC(=O)C(=O)NC)NS(=O)(=O)c2nccn2C)c1=O` [Compound E68, (S)—N1-(1-(2-(2-ethylbutylamino)-2-oxoethyl)-2-oxo-1,2-dihydropyridin-3-yl)-N6-methyl-2-(1-methyl-1H-imidazole-2-sulfonamido)-5-oxohexanediamide]: the negative logarithm of the IC50 (pIC50) was 6.82. On to `CCC(CC)CNC(=O)Cn1cccc(NC(=O)[C@H](CCC(=O)C(=O)NC)NC(=O)Nc2ccccc2)c1=O` [Compound E69, (S)—N1-(1-(2-(2-ethylbutylamino)-2-oxoethyl)-2-oxo-1,2-dihydropyridin-3-yl)-N6-methyl-5-oxo-2-(3-phenylureido)hexanediamide], for which the pIC50 is 6.56. As to `CCC(CC)CNC(=O)Cn1cccc(NC(=O)[C@H](CCC(=O)C(=O)NC)NC(=S)Nc2ccccc2)c1=O` [Compound E70, (S)—N1-(1-(2-(2-ethylbutylamino)-2-oxoethyl)-2-oxo-1,2-dihydropyridin-3-yl)-N6-methyl-5-oxo-2-(3-phenylthioureido)hexanediamide], the negative-log IC50 (pIC50) was 6.58. Turning to `CCC(CC)CNC(=O)Cn1cccc(NC(=O)[C@H](CCCC(=O)C(=O)NC)NC(=O)c2cncn2C)c1=O` [Compound E71, (S)—N1-(1-(2-(2-ethylbutylamino)-2-oxoethyl)-2-oxo-1,2-dihydropyridin-3-yl)-N7-methyl-2-(1-methyl-1H-imidazole-5-carboxamido)-6-oxoheptanediamide], the pIC50 is 5.22. With `CNC(=O)C(=O)CCC[C@H](NC(=O)c1cncn1C)C(=O)Nc1ccc(S(=O)(=O)N2CCN(C)CC2)cc1` [Compound E72, (S)—N1-methyl-6-(1-methyl-1H-imidazole-5-carboxamido)-N7-(4-(4-methylpiperazin-1-ylsulfonyl)phenyl)-2-oxoheptanediamide] the figure was 5.20; with `CCC(CC)CNC(=O)Cn1cccc(NC(=O)[C@H](CCCCC(=O)C(=O)NC)NC(=O)c2cncn2C)c1=O` [Compound E73, (S)—N1-(1-(2-(2-ethylbutylamino)-2-oxoethyl)-2-oxo-1,2-dihydropyridin-3-yl)-N8-methyl-2-(1-methyl-1H-imidazole-5-carboxamido)-7-oxooctanediamide], 5.20. Regarding `CCC(CC)CNC(=O)Cn1cccc(NC(=O)[C@H](CCC(=O)C(C)=O)NC(=O)c2cncn2C)c1=O` [Compound E74, (S)—N-(1-(1-(2-(2-ethylbutylamino)-2-oxoethyl)-2-oxo-1,2-dihydropyridin-3-ylamino)-1,5,6-trioxoheptan-2-yl)-1-methyl-1H-imidazole-5-carboxamide], the pIC50 is 6.90. Consider `CCC(CC)CNC(=O)Cn1cccc(NC(=O)[C@H](CCC(=O)C(=O)C2CC2)NC(=O)c2cncn2C)c1=O` [Compound E75, (S)—N-(6-cyclopropyl-1-(1-(2-(2-ethylbutylamino)-2-oxoethyl)-2-oxo-1,2-dihydropyridin-3-ylamino)-1,5,6-trioxohexan-2-yl)-1-methyl-1H-imidazole-5-carboxamide], for which the pIC50 is 6.87.

`CCC(CC)CNC(=O)Cn1cccc(NC(=O)[C@H](CCC(=O)C(=O)c2ccccc2)NC(=O)c2cncn2C)c1=O` [Compound E76, (S)—N-(1-(1-(2-(2-ethylbutylamino)-2-oxoethyl)-2-oxo-1,2-dihydropyridin-3-ylamino)-1,5,6-trioxo-6-phenylhexan-2-yl)-1-methyl-1H-imidazole-5-carboxamide]: the pIC50 is 6.26. The result for `CCC(CC)CNC(=O)Cn1cccc(NC(=O)[C@H](CCC(=O)C(=O)OC)NC(=O)c2cncn2C)c1=O` [Compound E77, (S)-methyl 6-(1-(2-(2-ethylbutylamino)-2-oxoethyl)-2-oxo-1,2-dihydropyridin-3-ylamino)-5-(1-methyl-1H-imidazole-5-carboxamido)-2,6-dioxohexanoate] reads 6.70; that for `CCC(CC)CNC(=O)Cn1cccc(NC(=O)[C@H](CCC(=O)C(=O)OCCOC)NC(=O)c2cncn2C)c1=O` [Compound E78, (S)-2-methoxyethyl 6-(1-(2-(2-ethylbutylamino)-2-oxoethyl)-2-oxo-1,2-dihydropyridin-3-ylamino)-5-(1-methyl-1H-imidazole-5-carboxamido)-2,6-dioxohexanoate], 6.40; that for `CCC(CC)CNC(=O)Cn1cccc(NC(=O)[C@H](CCC(=O)C(=O)NOCC2CCCC2)NC(=O)c2cncn2C)c1=O` [Compound E79, (S)—N1-(cyclopentylmethoxy)-N6-(1-(2-(2-ethylbutylamino)-2-oxoethyl)-2-oxo-1,2-di-hydropyridin-3-yl)-5-(1-methyl-1H-imidazole-5-carboxamido)-2-oxohexanediamide], 6.28. As to `CCC(CC)CNC(=O)Cn1cccc(NC(=O)[C@H](CCC(=O)C(=O)CC(C)C)NC(=O)c2cncn2C)c1=O` [Compound E80, (S)—N-(1-(1-(2-(2-ethylbutylamino)-2-oxoethyl)-2-oxo-1,2-dihydropyridin-3-ylamino)-8-methyl-1,5,6-trioxononan-2-yl)-1-methyl-1H-imidazole-5-carboxamide], the pIC50 was 6.87.

Consider `CCC(CC)CNC(=O)Cn1cccc(NC(=O)[C@H](CCC(=O)C(=O)c2cn(C)cn2)NC(=O)c2cncn2C)c1=O` [Compound E81, (S)—N-(1-(1-(2-(2-ethylbutylamino)-2-oxoethyl)-2-oxo-1,2-dihydropyridin-3-ylamino)-6-(1-methyl-1H-imidazol-4-yl)-1,5,6-trioxohexan-2-yl)-1-methyl-1H-imidazole-5-carboxamide], for which the negative logarithm of the IC50 (pIC50) is 6.13.

`CNC(=O)C(=O)CC[C@H](NC(=O)CC1CC(C)(C)OC1=O)C(=O)N[C@@H](Cc1c[nH]cn1)C(=O)N[C@@H](Cc1ccc(O)cc1)C(=O)N1Cc2ccccc2C[C@H]1C(N)=O` (stereo partly drawn) [Compound E82, (2S)-N1-((S)-1-((S)-1-((S)-3-carbamoyl-3,4-dihydroisoquinolin-2(1H)-yl)-3-(4-hydroxy-phenyl)-1-oxopropan-2-ylamino)-3-(1H-imidazol-4-yl)-1-oxopropan-2-yl)-2-(2-(5,5-dimethyl-2-oxotetrahydrofuran-3-yl)acetamido)-N6-methyl-5-oxohexanediamide] (X8-[Nle(5,6-dioxo,6-NHMe)]HY[Tic]-NH2): the negative logarithm of the IC50 (pIC50) is 5.87.

With `CNC(=O)C(=O)CC[C@H](NC(=O)Cc1cc(C)nn1C)C(=O)Nc1cccc(C(=O)N[C@@H](Cc2ccc(-c3ccccc3)cc2)C(=O)N2C[C@H](Oc3ccccc3)C[C@H]2C(N)=O)c1` [Compound E83, (S)—N1-(3-((S)-3-(biphenyl-4-yl)-1-((2S,4R)-2-carbamoyl-4-phenoxypyrrolidin-1-yl)-1-oxopropan-2-ylcarbamoyl)phenyl)-2-(2-(1,3-dimethyl-1H-pyrazol-5-yl)acetamido)-N6-methyl-5-oxohexanediamide], the pIC50 was 5.70. With `CNC(=O)C(=O)CC[C@H](NC(=O)OC(C)C)C(=O)N[C@@H](CCCNC(=N)N)C(=O)NC(C)(C)C(=O)N1C[C@H](O)C[C@H]1C(N)=O` [Compound E84, isopropyl (S)-1-((S)-1-(1-((2S,4R)-2-carbamoyl-4-hydroxypyrrolidin-1-yl)-2-methyl-1-oxopropan-2-ylamino)-5-guanidino-1-oxopentan-2-ylamino)-6-(methylamino)-1,5,6-trioxohexan-2-ylcarbamate] (Isopropoxycarbonyl-[Nle(5,6-dioxo,6-NHMe)]R[Aib][Hyp]-NH2) the figure was 6.02.

Source of the values: patent US11072634B2, “Inhibitors of transglutaminases” (Zedira GmbH, priority 2016, dated 2021).
